Test results as given in patent US20080113900A1, “Pharmaceutical compositions and therapeutic applications for the use of a synthetic vitamin B12 derivative, glutathionylcobalamin” (priority 2006, published 2008).
Where “and” joins values, the source holds several entries; their conditions need not be identical. Equal entries are not always repeated. Structures can show the parent of a compound that is named as a salt.

Columns and labels:
in vitro = details: human, SK-HEP-1 cells
Hsp32 = Hsp32 gene expression (RT-PCR, densitometry); assay type: cell-based, human
Protocol: (§1) Cells were plated into 6-, 12-, or 24-well cell culture clusters, at 2×10^3, 2×10^5, or 1×10^5 cells per well and incubated until 90% confluent. Treatments were applied as above.
(§2) Following incubation, cells were subjected to mRNA extraction followed by cDNA synthesis for each sample under test. Polymerase chain reaction cDNA templates were prepared for simplex PCR protocol. PCR products were then visualized using a UV Transilluminator and images captured using a Kodak ID gel imaging system. Densitometry and statistical analysis was then performed on each gene expression band image using PSP® v 10.0 running under Windows XP®.
(§3) mRNA extraction was performed using the Quickprep micro mRNA Purification Kit. Following incubation of cells post-treatment, the media was removed from the cells, adherent cells were re-suspended in 0.4 ml extraction buffer and 0.8 ml elution buffer at 65° C. was added.
A reaction mixture was prepared in individual microcentrifuge tubes containing 2 cDNA synthesis beads, 32 μl of the mRNA solution and 1 μl of pd(N)6. This mixture was incubated at 37° C. in a water bath for 60 minutes. After incubation, 27 μl of RNase-free DEPC treated water was added to each tube to make a total volume 60 μl. cDNA samples were prepared in duplicate. Sample 1 was used immediately in RT-PCR protocol. Sample 2 was prepared for qPCR protocol by the addition of 150 μl of 95% ice-cold ethanol and stored at −20° C.
Microcentrifuge tubes from puReTaq™Ready-To-Go™ PCR Beads containing one PCR bead were labeled for each sample required. Added to the PCR bead were 17 μl of RNase-free DEPC treated water, 1 μl sense primer, 1 μl anti-sense primer and 5 μl of the cDNA solution. RT-PCR conditions were as follows: Hsp70 and β-actin, pre-treatment step, 94° C. for 1 minute, followed by denaturing at 92° C. for 1 minute, annealing at 60° C. for 1 minute and extension at 72° C. for 1 minute. Total cycles, 30, post-treatment was then carried out at 72° C. for 10 minutes. For Hsp32, pre-treatment step, 95° C. for 2 minutes, followed by denaturing at 94° C. for 30 seconds, annealing at 58° C. for 1 minute and extension at 72° C. for 1 minute. Total cycles 45, post treatment was then carried out at 72° C. for 10 minutes. Following RT-PCR, samples were stored at −20° C.
Gels were visualised on a UV Transilluminator. Photographs were stored using a Kodak Digital camera system fitted with a UV filter set connected to a PC. Images were then transferred to the Kodak ID gel imaging system. Densitometry was performed on each gene expression band using PSP™ v10 running under Windows XP®.
Experiments were conducted using Hsp32 and Hsp 70 gene expression as the basis for study. […] The densitometric data are presented as means ±SEM of n=3 separate experiments. *p<0.05 or **p<0.01, treatment vs. control.

SK-HEP-1 cells [1] = assay: NACCbl protection from homocysteine with inhibition of Hsp32/Hsp70 by Sn(IX) protoporphyrin, quercitin or siRNA (MTS assay); details: listed as Hcy
Hsp70 = Hsp70 gene expression (RT-PCR, densitometry); details: SK-HEP-1, 30 μM, 2 hr
Protocol: as §1, §2, §3
A reaction mixture was prepared in individual microcentrifuge tubes containing 2 cDNA synthesis beads, 32 μl of the mRNA solution and 1 μl of pd(N)6. This mixture was incubated at 37° C. in a water bath for 60 minutes. After incubation, 27 μl of RNase-free DEPC treated water was added to each tube to make a total volume 60 μl. cDNA samples were prepared in duplicate. Sample 1 was used immediately in RT-PCR protocol.
Microcentrifuge tubes from puReTaq™Ready-To-Go™ PCR Beads containing one PCR bead were labeled for each sample required. Added to the PCR bead were 17 μl of RNase-free DEPC treated water, 1 μl sense primer, 1 μl anti-sense primer and 5 μl of the cDNA solution. RT-PCR conditions were as follows: Hsp70 and β-actin, pre-treatment step, 94° C. for 1 minute, followed by denaturing at 92° C. for 1 minute, annealing at 60° C. for 1 minute and extension at 72° C. for 1 minute. Total cycles, 30, post-treatment was then carried out at 72° C. for 10 minutes. For Hsp32, pre-treatment step, 95° C. for 2 minutes, followed by denaturing at 94° C. for 30 seconds, annealing at 58° C. for 1 minute and extension at 72° C. for 1 minute. […]

SK-HEP-1 cells [2] = assay: Protection of endothelial cells from homocysteine-induced cell death (MTS assay); assay type: cell-based, human
Protocol: The effect of a constant concentration of NACCbl and GSCbl to protect cells against variable concentrations of homocysteine was assessed. […] Cell viability was determined by MTS® assay. Data shown in FIG. 4 are representative of means ±SE of 6 independent samples. FIG. 4 illustrates that NACCbl (▪) and GSCbl (▴) protect endothelial cells from the effect of homocysteine. […] Cell viability was determined by MTS® assay. […] There was a decrease in protection as homocysteine concentration increased, but there was still ˜60% survival at 50 μM homocysteine.
The data was normalized (log 2 and log 10) as shown in FIGS. 16 and 17 and Tables 16 and 17, respectively, below.

SK-HEP-1 cells [3] = assay: Effect of homocysteine and H2O2 on endothelial cell viability (MTS assay); details: for Normalized Data Log 2, Mean / Normalized Data Log 10, Mean: Hcy alone, n = 6; for Cell viability (MTS assay): SK-HEP-1, 2 hours, n = 6 replicates
SK-HEP-1 cells [4] = assay: Protection from homocysteine-induced apoptosis, Caspase-3 activity (apoptosis assay); assay type: cell-based, human; details: 30 μM two hours, then 30 μM homocysteine two hours
Protocol: Caspase 3 is activated when cells undergo apoptosis. Caspase-3 assay is a standard for apoptosis assay. Homocysteine is a known inducer of apoptosis. Cells were cultured in 96-well plates for 24 hours and then treated with reagents under test conditions. Cytotoxic agents, H2O2 and etoposide were added to negative control wells. The assay was performed according to the manufacturer's protocol, as follows: Cells were re-suspended in 100 μl of clear media and 50 μl of Caspase-3 substrate solution was immediately added to each test well. […] Cell viability was determined by MTS® assay. […] Cell viability was determined by MTS® assay.

## NC(CCS)C(=O)O (racemic) [Homocysteine, DL-Homocysteine]
In vitro
  viability at 2 h, 0.781 µM: 99.8%
  viability at 2 h, 3.125 µM: 96%
Hsp32; SK-HEP-1, 30 μM, 2 hr
  Hsp32 gene expression: increase in expression
Hsp32; SK-HEP-1, Sn (IX) protoporphyrin 25 μM, Quercitin 15 μM
  Hsp32 gene expression: induced
SK-HEP-1 cells [1]; SK-HEP-1, NACCbl 30 μM two hours with or without Sn(IX)PP/quercetin, then Hcy conc. 200 two hours, label Hcy = Hcy alone
  Cell viability by MTS assay (FIG. 11), replicates 1-6: 0.33 and 0.312 and 0.39 and 0.302 and 0.421 and 0.406
SK-HEP-1 cells [1]; as E45, Hcy conc. 1.78
  Cell viability by MTS assay (FIG. 11), replicates 1-6: 1.746 and 1.932 and 1.95 and 1.83 and 1.837 and 1.884
SK-HEP-1 cells [1]; as E45, Hcy conc. 3.125
  Cell viability by MTS assay (FIG. 11), replicates 1-6: 1.543 and 1.487 and 1.656 and 1.63 and 1.593 and 1.558
SK-HEP-1 cells [1]; as E45, Hcy conc. 6.25
  Cell viability by MTS assay (FIG. 11), replicates 1-6: 1.304 and 1.406 and 1.227 and 1.176 and 1.15 and 1.119
SK-HEP-1 cells [1]; as E45, Hcy conc. 12.5
  Cell viability by MTS assay (FIG. 11), replicates 1-6: 1.104 and 1.001 and 1.042 and 1.114 and 1.324 and 1.479
SK-HEP-1 cells [1]; as E45, Hcy conc. 25
  Cell viability by MTS assay (FIG. 11), replicates 1-6: 0.692 and 0.956 and 0.876 and 0.882 and 0.937 and 0.74
SK-HEP-1 cells [1]; as E45, Hcy conc. 50
  Cell viability by MTS assay (FIG. 11), replicates 1-6: 0.678 and 0.881 and 0.602 and 0.77 and 0.724 and 0.779
SK-HEP-1 cells [1]; as E45, Hcy conc. 100
  Cell viability by MTS assay (FIG. 11), replicates 1-6: 0.654 and 0.449 and 0.466 and 0.501 and 0.522 and 0.51
Hsp70
  Hsp70 gene expression: increase in expression
SK-HEP-1 cells [2]; SK-HEP-1, NACCbl 30 μM, NAC 75 μM, Hcy conc. 200.000, n = 6, label Hcy = Hcy alone
  Absorbance at 490 nm, Mean: 0.360
SK-HEP-1 cells [2]; [Hcy] 30 μM, [NAC] = 45 μM, [NACCbl] = 12.5 μM, [Folate] = 25 μM where named in the label, label Hcy/HCy = Hcy alone
  Mean (FIG. 14, protection of SK-HEP-1 cells from Hcy): 0.616
SK-HEP-1 cells [2]; as E80, Hcy conc. 1.780
  Absorbance at 490 nm, Mean: 1.863
SK-HEP-1 cells [2]; as E80, Hcy conc. 3.125
  Absorbance at 490 nm, Mean: 1.578
SK-HEP-1 cells [2]; as E80, Hcy conc. 6.250
  Absorbance at 490 nm, Mean: 1.230
SK-HEP-1 cells [2]; as E80, Hcy conc. 12.500
  Absorbance at 490 nm, Mean: 1.177
SK-HEP-1 cells [2]; as E80, Hcy conc. 25.000
  Absorbance at 490 nm, Mean: 0.847
SK-HEP-1 cells [2]; as E80, Hcy conc. 50.000
  Absorbance at 490 nm, Mean: 0.739
SK-HEP-1 cells [2]; as E80, Hcy conc. 100.000
  Absorbance at 490 nm, Mean: 0.517
SK-HEP-1 cells [3]; conc. 1.780
  Normalized Data Log 2, Mean: 59.351
  Normalized Data Log 10, Mean: 89.537
SK-HEP-1 cells [3]; conc. 3.125
  Normalized Data Log 2, Mean: 48.077
  Normalized Data Log 10, Mean: 73.700
SK-HEP-1 cells [3]; conc. 6.250
  Normalized Data Log 2, Mean: 34.347
  Normalized Data Log 10, Mean: 54.413
SK-HEP-1 cells [3]; conc. 12.500
  Normalized Data Log 2, Mean: 32.253
  Normalized Data Log 10, Mean: 51.471
SK-HEP-1 cells [3]; conc. 25.000
  Normalized Data Log 2, Mean: 19.208
  Normalized Data Log 10, Mean: 33.145
SK-HEP-1 cells [3]; conc. 50.000
  Normalized Data Log 2, Mean: 14.935
  Normalized Data Log 10, Mean: 27.142
SK-HEP-1 cells [3]; conc. 100.000
  Normalized Data Log 2, Mean: 6.164
  Normalized Data Log 10, Mean: 14.820
SK-HEP-1 cells [3]; conc. 200.000
  Normalized Data Log 2, Mean: −0.033
  Normalized Data Log 10, Mean: 6.115
SK-HEP-1 cells [3]; SK-HEP-1, 2 hours
  Concentration achieving greater than 90% death (<10% survival): 25 µM
SK-HEP-1 cells [3]; SK-HEP-1, 2 hours, p<0.001
  Concentration that killed cells: ≥ 5 µM
SK-HEP-1 cells [3]; 0.781 μM
  Cell viability (MTS assay): 98.11 and 102.5676 and 102.4576 and 98.72 and 98.39
SK-HEP-1 cells [3]; 1.562 μM
  Cell viability (MTS assay): 100.5319 and 102.4026 and 85.18 and 81.33 and 81.6 and 98.83
SK-HEP-1 cells [3]; 3.125 μM
  Cell viability (MTS assay): 91.62 and 82.82 and 78.3 and 80.94 and 91.78
SK-HEP-1 cells [3]; 6.25 μM
  Cell viability (MTS assay): 62.02 and 28.4 and 38.2485 and 48.6474 and 67.63 and 55.0298
SK-HEP-1 cells [3]; 25 μM
  Cell viability (MTS assay): 1.495 and 0.5044 and 0.1192
SK-HEP-1 cells [3]; 50 μM
  Cell viability (MTS assay): 0.2843 (2×) and 0.9445 and 1.44 and 3.255

## CN1c2c(nc(N)[nH]c2=O)NC[C@@H]1CNc1ccc(C(=O)N[C@@H](CCC(=O)O)C(=O)O)cc1 [folate, 5-Methyltetrahydrofolic acid disodium salt]
Hsp32; SK-HEP-1, 30 μM, 2 hr
  Hsp32 gene expression: increase in expression
Hsp70
  Hsp70 gene expression: increase in expression
SK-HEP-1 cells [4]
  Protection against apoptosis induced by homocysteine: partial protection
